The results in this text go back to ChEMBL document CHEMBL1157398, “Ymf 1029A-E, preussomerin analogues from the fresh-water-derived fungus YMF 1.01029” (2008).

What all share (format): functional
The test system of assay [1] is Bursaphelenchus xylophilus. The experiment in a line: Nematicidal activity against Bursaphelenchus xylophilus at 100 ug/ml after 48 hrs.
The test system of assay [2] is Bursaphelenchus xylophilus. The experiment in a line: Nematicidal activity against Bursaphelenchus xylophilus at 200 ug/ml after 48 hrs.
The test system of assay [3] is Bursaphelenchus xylophilus. The experiment in a line: Nematicidal activity against Bursaphelenchus xylophilus at 200 ug/ml after 24 hrs.
The subject of assay [4] is Bursaphelenchus xylophilus. The experiment in a line: Nematicidal activity against Bursaphelenchus xylophilus at 100 ug/ml after 24 hrs.

On to `Oc1ccc2c3c1[C@@H](O)[C@H]1O[C@H]1[C@]31Oc3cccc4c3[C@](O2)(O1)[C@H](O)C[C@@H]4O`, for which the Activity in assay [1] is reported as 35.5%; in assay [2], 62.3%; in assay [3], 54.8%; in assay [4], 25.6%.
For `O=C1CC[C@]23Oc4ccc(O)c5c4[C@](Oc4cccc1c42)(O3)[C@@H]1O[C@@H]1[C@@H]5O`, the Activity in assay [1] turned out to be 44.1%; in assay [2] it was 60.7%; in assay [3], 47.9%; in assay [4], 33.7%.
The matching figures for `O=C1c2c(O)ccc3c2[C@@]2(Oc4cccc5c4[C@](O3)(O2)[C@H](O)C[C@@H]5O)[C@@H]2O[C@H]12`: 39.6%, 64.2%, 52.3% and 27.8%.
In the same order, the values of `O=C1CC[C@H](O)c2cc(O)cc(O)c21` are 46.7%, 57.3%, 51.2% and 23.7%.
In the same order, the values of `O=C1C[C@@H](O)[C@]23Oc4ccc(O)c5c4[C@](Oc4cccc1c42)(O3)[C@@H]1O[C@@H]1[C@@H]5O` are 66.4%, 70.3%, 56.7% and 45.2%.
Consider `O=C1CCC(O)c2cccc(O)c21` (racemic) [4,8-DIHYDROXY-1-TETRALONE], for which the Activity is 43.8% in assay [1], 58.3% in assay [2], 53.4% in assay [3] and 34.7% in assay [4].
In the case of `CO[C@@H]1CC(=O)c2cccc3c2[C@@]12Oc1ccc(O)c4c1[C@](O3)(O2)[C@@H]1O[C@@H]1[C@@H]4O` [PREUSSOMERIN C], the Activity stood at 67.4% in assay [1], 78.6% in assay [2], 59.3% in assay [3] and 50.2% in assay [4].
In the same order, the values of `O=C1C=C[C@]23Oc4ccc(O)c5c4[C@](Oc4cccc1c42)(O3)[C@@H]1O[C@@H]1[C@@H]5O` [PREUSSOMERIN D] are 76.5%, 83.7%, 60.4% and 53.8%.
